Among the data in US7572799B2, “Pyrazolo[4,3-d]pyrimidines as Phosphodiesterase Inhibitors” (Pfizer Inc, priority 2003, dated 2009) are IC50 values, retold here.

The target of one experiment is PDE-5 (UniProt O76074). Nature of the experiment: In vitro PDE inhibitory activity against PDE5 (batch method or scintillation proximity assay). Format: biochemical, human. To be noted: representative compounds. The text has this: The compounds of the invention are inhibitors of cyclic guanylate monophosphate (cGMP)-specific phosphodiesterase type 5 (PDE-5 inhibitors).
The required PDE enzymes can be isolated from a variety of sources, including human corpus cavernosum, human and rabbit platelets, human cardiac ventricle, human skeletal muscle and bovine retina, essentially by a modification of the method of Thompson, W J et al.; Biochemistry 18(23), 5228-5237, 1979, as described by Ballard S A et al.; J. Urology 159(6), 2164-2171, 1998. In particular, cGMP-specific PDE5 and cGMP-inhibited cAMP PDE3 can be obtained from human corpus cavernosum tissue, human platelets or rabbit platelets; cGMP-stimulated PDE2 was obtained from human corpus cavernosum; calcium/calmodulin (Ca/CAM)-dependent PDE1 from human cardiac ventricle; cAMP-specific PDE4 from human skeletal muscle; and photoreceptor PDE6 from bovine retina. Phosphodiesterases 7-11 can be generated from full length human recombinant clones transfected into SF9 cells.
Assays can be performed either using a modification of the “batch”method of Thompson W J and Appleman M M; Biochemistry 10(2), 311-316, 1971, essentially as described by Ballard S A et al.; J. Urology 159(6), 2164-2171, 1998, or using a scintillation proximity assay for the direct detection of [^3H]-labelled AMP/GMP using a modification of the protocol described by Amersham plc under product code TRKQ7090/7100. In summary, for the scintillation proximity assay the effect of PDE inhibitors was investigated by assaying a fixed amount of enzyme in the presence of varying inhibitor concentrations and low substrate, (cGMP or cAMP in a 3:1 ratio unlabelled to [^3H]-labeled at a concentration of ˜⅓ Km, or less) such that IC50≅Ki. The final assay volume was made up to 100 μl with assay buffer [20 mM Tris-HCl pH 7.4, 5 mM MgCl2, 1 mg/ml bovine serum albumin]. Reactions were initiated with enzyme, incubated for 30-60 min at 30° C. to give <30% substrate turnover and terminated with 50 μl yttrium silicate SPA beads (containing 3 mM of the respective unlabelled cyclic nucleotide for PDEs 9 and 11).
As for `COC(C)CCn1nc(C(=O)O)c2nc(N(C)C(C)C)nc(Nc3cc(C)ccn3)c21` (stereo not shown) [Example 107], the IC50 turned out to be 0.307 nM. `CCOCCn1nc(C(=O)O)c2nc(N(C)C(C)C)nc(NC3CCCC3)c21` [Example 31]: inhibition was half-maximal at 43.4 nM (IC50). `CCOCCn1nc(C(=O)O)c2nc(N(C)C(C)C)nc(N[C@@H]3CCOC3)c21` [Example 67] registered a half-maximal inhibitory concentration (IC50) of 100 nM. `CCN(C)c1nc(Nc2cc(C)ccn2)c2c(n1)c(C(=O)O)nn2CC1CCCCO1` (stereo not shown) [Example 60] gave a half-maximal inhibitory concentration (IC50) of 8.02 nM.

`Cc1ccnc(Nc2nc(N(C)C)nc3c(C(=O)O)nn(CC4CCOCC4)c23)c1` [Example 57] gave an IC50 of 100 nM. As to `CCOCCn1nc(C(=O)O)c2nc(N(C)C3CCC3)nc(N[C@@H]3CCOC3)c21` [Example 69], the IC50 is 100 nM.

The experiment is the same for the next values; noted with them: representative compounds, read-out: IC50.
As for `CCOCCn1nc(C(=O)OC)c2nc(N(C)C(C)C)nc(Nc3cccc(C)n3)c21` [Example 6, Methyl 1-(2-ethoxyethyl)-5-(N-isopropyl-N-methylamino)-7-(6-methylpyridin-2-ylamino) -1H-pyrazolo[4,3-d]pyrimidine-3-carboxylate], the half-inhibitory concentration (IC50) was 2.89 nM. Regarding `CCOCCn1nc(C(=O)OCC)c2nc(N(C)CC)nc(Nc3cc(C)ccn3)c21` [Example 7, Ethyl 1-(2-ethoxyethyl)-5-(N-ethyl-N-methylamino)-7-(4-methylpyridin-2-ylamino)-1H pyrazolo[4,3-d]pyrimidine-3-carboxylate], the IC50 turned out to be 0.082 nM.

Consider `CO[C@H](C)Cn1nc(C(=O)O)c2nc(N(C)C(C)C)nc(Nc3cc(C)ccn3)c21` [Example 112, (2′R)-5-(N-Isopropyl-N-methylamino)-1-(2′-methoxypropyl)-7-(4-methylpyridin-2-ylamino)-1H-pyrazolo[4,3-d]pyrimidine-3-carboxylic acid], for which the IC50 is 14.7 nM. For the compound `Cc1ccnc(Nc2nc(N(C)C3CCC3)nc3c(C(=O)O)nn(CCOCC(F)(F)F)c23)c1` [Example 130, 5-[Cyclobutyl(methyl)amino]-7-[(4-methylpyridin-2-yl)amino]-1-[2-(2,2,2-trifluoroethoxy)ethyl]-1H-pyrazolo[4,3-d]pyrimidine-3-carboxylic acid], the IC50 worked out at 19.5 nM. As for `CCOCCn1nc(C(=O)O)c2nc(N(C)C(C)C)nc(Nc3ccccc3)c21` [Example 95], the concentration for half-maximal inhibition (IC50) was 9.11 nM. Turning to `Cc1ccnc(Nc2nc(N(C)C(C)C)nc3c(C(=O)O)nn(CCOCC(F)(F)F)c23)c1` [Example 126, 5-[Isopropyl(methyl)amino]-7-[(4-methylpyridin-2-yl)amino]-1-[2-(2,2,2-trifluoroethoxy)ethyl]-1H-pyrazolo[4,3-d]pyrimidine-3-carboxylic acid], the IC50 was found to be 3.05 nM.

For `CCOCCn1nc(-c2nc(=O)o[nH]2)c2nc(N(C)CC)nc(Nc3cc(C)ccn3)c21` [Example 76], the IC50 was determined as 0.465 nM.

Take `CCOCCn1nc(-c2nc(=O)o[nH]2)c2nc(N(C)C(C)C)nc(Nc3cc(C)ccn3)c21` [Example 75, 3-[1-(2-Ethoxyethyl)-5-(N-isopropyl-N-methylamino)-7-(4-methylpyridin-2-ylamino)-1H-pyrazolo[4,3-d]pyrimidin-3-yl]-2H-1,2,4-oxadiazol-5-one]: the IC50 was 0.371 nM. For the compound `CCOCCn1nc(C(=O)O)c2nc(N(C)C)nc(Nc3cc(C)cc(C)n3)c21` [Example 27], the IC50 came to 36.8 nM. With `CCOCCn1nc(C(=O)O)c2nc(N(C)C(C)C)nc(Nc3cc(CC)ccn3)c21` [Example 36], the IC50 was 0.708 nM. For `CCOCCn1nc(C(=O)O)c2nc(N(C)C)nc(Nc3ccc(C)c(C)c3)c21` [Example 102], the IC50 is 38.2 nM. `CCN(C)c1nc(Nc2cc(C)ccn2)c2c(n1)c(C(=O)NS(C)(=O)=O)nn2CCOCC(F)(F)F` [Example 178, 5-[Ethyl(methyl)amino]-7-[(4-methylpyridin-2-yl)amino]-N-(methylsulfonyl)-1-[2-(2,2,2-trifluoroethoxy)ethyl]-1H-pyrazolo[4,3-]pyrimidine-3-carboxamide]: the IC50 was 2.21 nM.

Regarding `CCOCCn1nc(C(=O)O)c2nc(N(C)C(C)C)nc(Nc3ccnc(C)n3)c21` [Example 72], the IC50 was found to be 59.2 nM. Same read-out and setting: the result for `CCOCCn1nc(-c2nnn[nH]2)c2nc(N(C)C(C)C)nc(Nc3cc(C)ccn3)c21` [Example 79] reads 0.332 nM. In the case of `Cc1ccnc(Nc2nc(N3CCCC3C)nc3c(C(=O)O)nn(CCOCC(F)(F)F)c23)c1` (stereo not shown) [Example 129, 7-[(4-Methylpyridin-2-yl)amino]-5-(2-methylpyrrolidin-1-yl)-1-[2-(2,2,2-trifluoroethoxy)ethyl]-1H-pyrazolo[4,3-d]pyrimidine-3-carboxylic acid], the IC50 was found to be 7.78 nM. Take `CCOCCn1nc(C(=O)OCC)c2nc(N3CCN[C@H](C)C3)nc(Nc3cc(C)ccn3)c21` [Example 8]: the IC50 worked out at 3.82 nM.

On to `CCN(C)c1nc(Nc2cc(C)ccn2)c2c(n1)c(C(=O)O)nn2CCOC(C)C` [Example 62], for which the IC50 amounted to 1.85 nM. Regarding `Cc1ccnc(Nc2nc(N(C)C(C)C)nc3c(C(=O)NS(C)(=O)=O)nn(CCOCC(F)F)c23)c1` [Example 181], the concentration for half-maximal inhibition (IC50) stood at 1.29 nM. Take `Cc1ccnc(Nc2nc(N(C)C(C)C)nc3c(C(=O)NS(C)(=O)=O)nn(CCOCC(F)(F)F)c23)c1` [Example 179, 5-[Isopropyl(methyl)amino]-7-[(4-methylpyridin-2-yl)amino]-N-(methylsulfonyl)-1-[2-(2,2,2-trifluoroethoxy)ethyl]-1H-pyrazolo[4,3-d]pyrimidine-3-carboxamide]: the IC50 was determined as 0.914 nM.

With `CCOCCn1nc(C(=O)OC)c2nc(N(C)C(C)C)nc(Nc3cc(C)ccn3)c21` [Example 1, Methyl 1-(2-ethoxyethyl)-5-(N-isopropyl-N-methylamino)-7-(4-methylpyridin-2-ylamino)-1H-pyrazolo[4,3-d]pyrimidine-3-carboxylate], the IC50 was determined as 0.075 nM. Still for that read-out and setting: with `CCOCCn1nc(C(=O)O)c2nc(N(C)C)nc(Nc3cc(C)ccc3F)c21` [Example 100] the figure was 3.48 nM.

For the compound `CO[C@@H](C)Cn1nc(C(=O)O)c2nc(N(C)C(C)C)nc(Nc3cc(C)ccn3)c21` [Example 135, 5-[Isopropyl(methyl)amino]-1-[(2S)-2-methoxypropyl]-7-[(4-methylpyridin-2-yl)amino]-1H-pyrazolo[4,3-d]pyrimidine-3-carboxylic acid], the IC50 stood at 7.7 nM.

Consider `CCOCCn1nc(C(=O)O)c2nc(N(C)C(C)C)nc(Nc3cc(C)ncn3)c21` [Example 123], for which the IC50 was found to be 0.628 nM.

For the compound `CCOCCn1nc(C(=O)O)c2nc(N(C)CC)nc(Nc3ccc(C)c(C)c3)c21` [Example 103], the IC50 was found to be 21.4 nM. Take `CCOCCn1nc(C(=O)O)c2nc(N(C)CC)nc(Nc3cc(C)nc(C)n3)c21` [Example 74]: the IC50 came out at 100 nM.

Consider `CCOCCn1nc(C(=O)O)c2nc(N(C)C)nc(Nc3cccc(C)n3)c21` [Example 39], for which the IC50 came to 57.2 nM. Take `CCOCCn1nc(C(=O)O)c2nc(N(C)C(C)C)nc(Nc3ccc(F)c(C)c3)c21` [Example 85]: the IC50 was 0.055 nM. For `CCOCCn1nc(C(=O)O)c2nc(N(C)CC)nc(Nc3cc(C)ccn3)c21` [Example 96], the half-maximal inhibitory concentration (IC50) turned out to be 3.65 nM.

Regarding `CCOCCn1nc(C(=O)NS(C)(=O)=O)c2nc(N(C)CC)nc(Nc3cc(CO)ccn3)c21` [Example 153], the IC50 came to 0.398 nM.

As for `Cc1ccnc(Nc2nc(N(C)C(C)C)nc3c(C(=O)O)nn(CCOCC4CC4)c23)c1` [Example 108], the half-inhibitory concentration (IC50) is 18.3 nM. With `CCOCCn1nc(C(=O)O)c2nc(N(C)CC)nc(Nc3cccc(C)n3)c21` [Example 38], the concentration for half-maximal inhibition (IC50) turned out to be 16.7 nM. As for `CCCOCCn1nc(C(=O)O)c2nc(N(C)C(C)C)nc(Nc3cc(C)ccn3)c21` [Example 19], the IC50 amounted to 2.43 nM.

Take `CCOCCn1nc(C(=O)O)c2nc(N(C)C)nc(Nc3cc(C)ccn3)c21` [Example 14]: the IC50 stood at 8.75 nM. The same measure, in the same setting: the result for `CCOCCn1nc(C(=O)O)c2nc(N(C)CC)nc(Nc3ccc(F)c(C)c3)c21` [Example 87] reads 0.087 nM.
